Data set [1] deals with Streptococcus pneumoniae DP-1 Type 1. The data set is described as follows: Infection-treating test in mice. The data set is classed as in vivo. From the text: The compounds represented by the formula (I) exert excellent in vivo effects in infection-treating tests in mice in comparison with the case of currently known 16-membered macrolide antimicrobial agents. […] Such an excellent effect is related not to the ester bonding of the tertiary hydroxyl group at the 3"-position with an acyl group but directly to its ether bonding with a methyl group. […] In this connection, it has been reported that an isovaleryl group linked to a hydroxyl group at the 4"-position cannot easily be cleaved in rat blood plasma when compared with a propionyl group [Yakugaku Zasshi, 102(8), 781 (1982)].

In the next data set the test system is test strains. The data set is described as follows: Antimicrobial activity in vitro, test strains overall. The format is cell-based. In short, it runs like this:
(§1)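 Seed cultures are prepared in STB for Staphylococcus strains and on blood agar for H. influenzae and B. catarrhalis. A 5 μl inoculum (approx. 10^6 CFU/ml) goes onto blood-supplemented agar plates, which incubate 20 hours at 37° C. before MIC determination.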

For another data set, the system named is S. aureus 209P JC-1. The data set is described as follows: MIC, agar plate dilution method. The format is cell-based. The note with it: for MIC: Staphylococcus aureus, 209P, 20 h, read-out: Antimicrobial activity (MIC), 37° C., 20 hours, SDA with 5% horse blood. In short, it runs like this:
as §1

A further data set has as its system E. faecalis W-73. Kind of data set: MIC, agar plate dilution method. The format is cell-based. Particulars: Enterococcus faecalis, W73, 20 h, read-out: Antimicrobial activity (MIC). In short, it runs like this: as §1
The test system of the next data set is S. aureus MS15009/pMS98. The data set is described as follows: MIC, agar plate dilution method. The format is cell-based. Particulars: for MIC: Staphylococcus aureus, MS15009/PMS98, 20 h, read-out: Antimicrobial activity (MIC), 37° C., 20 hours, SDA with 5% horse blood. The essentials: (§2)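 Minimum inhibitory concentration by agar plate dilution on disk agar with 5% horse blood; 5 μl of roughly 10^6 CFU/ml inoculated, 37° C. for 20 h.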

For the next data set, the system named is S. aureus M133. The data set is described as follows: MIC, agar plate dilution method. The note with it: for MIC: Staphylococcus aureus, M133, 20 h, read-out: Antimicrobial activity (MIC), 37° C., 20 hours, SDA with 5% horse blood. The format is cell-based. The essentials:
as §1

The subject of the next data set is E. coli NIHJ JC-2. The data set is described as follows: MIC, agar plate dilution method. The format is cell-based. The note with it: Escherichia coli, NIHJJC2, 20 h, 37° C., SDA with 5% horse blood, read-out: Antimicrobial activity (MIC). In short, it runs like this:
as §2

Another data set concerns S. epidermidis ATCC14990. The data set is described as follows: MIC, agar plate dilution method. The note with it: Staphylococcus epidermidis, ATCC14990, 20 h, read-out: Antimicrobial activity (MIC), 37° C., 20 hours, SDA with 5% horse blood. The format is cell-based. The essentials: as §1
In the next data set the test system is S. pyogenes Cook. Kind of data set: MIC, agar plate dilution method. The format is cell-based. Particulars: Streptococcus pyogenes. In short, it runs like this:
as §2

In a further data set the test system is B. catarrhalis W-0506. Kind of data set: MIC, agar plate dilution method. The note with it: Moraxella catarrhalis, W0506; 37° C., 20 hours, SDA with 5% horse blood; read-out: Antimicrobial activity (MIC). The format is cell-based. The essentials: as §1
In another data set the test system is S. aureus MS15009/pMS99. Kind of data set: MIC, agar plate dilution method. The format is cell-based. Particulars: Staphylococcus aureus, MS15009/PMS99, 20 h, read-out: Antimicrobial activity (MIC). In short, it runs like this:
as §2

For the next data set, the system named is S. pneumoniae Type 1. Kind of data set: MIC, agar plate dilution method. The data set is classed as cell-based. Particulars: for MIC: Streptococcus pneumoniae, TYPE1, 20 h, read-out: Antimicrobial activity (MIC), 37° C., 20 hours, SDA with 5% horse blood. The essentials: as §2
In a further data set the test system is S. pneumoniae IP692. The data set is described as follows: MIC, agar plate dilution method. Particulars: for MIC: Streptococcus pneumoniae, IP692, 20 h, read-out: Antimicrobial activity (MIC), 37° C., 20 hours, SDA with 5% horse blood. The format is cell-based. In short, it runs like this:
as §2

A further data set relates to S. aureus MS15026. The data set is described as follows: MIC, agar plate dilution method. The format is cell-based. The note with it: Staphylococcus aureus, 37° C., 20 hours, SDA with 5% horse blood, read-out: Antimicrobial activity (MIC). In short, it runs like this:
as §1

The test system of another data set is M. luteus ATCC9341. The data set is described as follows: MIC, agar plate dilution method. The format is cell-based. The note with it: Micrococcus luteus. The essentials:
as §1

Another data set deals with H. influenzae 9334. Kind of data set: MIC, agar plate dilution method. The format is cell-based. The essentials:
as §1

In the next data set the test system is K. pneumoniae PCI602. The data set is described as follows: MIC, agar plate dilution method. The data set is classed as cell-based. The note with it: Klebsiella pneumoniae, PCI602, 20 h, 37° C., SDA with 5% horse blood, read-out: Antimicrobial activity (MIC). The essentials: as §1
For the next data set, the system named is S. aureus MS15027. Kind of data set: MIC, agar plate dilution method. The note with it: Staphylococcus aureus, MS15027, 20 h, read-out: Antimicrobial activity (MIC), 37° C., 20 hours, SDA with 5% horse blood. The data set is classed as cell-based. The essentials:
as §1

Another data set deals with H. influenzae Type b. Kind of data set: MIC, agar plate dilution method. The format is cell-based. Particulars: for MIC: Haemophilus influenzae, 20 h, read-out: Antimicrobial activity (MIC), 37° C., 20 hours, SDA with 5% horse blood. In short, it runs like this:
as §1

The test system of the next data set is B. catarrhalis W-0500. The data set is described as follows: MIC, agar plate dilution method. The note with it: Moraxella catarrhalis, W0500; 37° C., 20 hours, SDA with 5% horse blood; read-out: Antimicrobial activity (MIC). The format is cell-based. The essentials: as §1
In a further data set the test system is S. aureus M126. Kind of data set: MIC, agar plate dilution method. The format is cell-based. Particulars: Staphylococcus aureus, 37° C., 20 hours, SDA with 5% horse blood, read-out: Antimicrobial activity (MIC). In short, it runs like this:
as §1

For data set [2] the following is noted: literature; cited from earlier work.
The subject of a further data set is B. catarrhalis W-0400. The data set is described as follows: MIC, agar plate dilution method. The data set is classed as cell-based. The note with it: Moraxella catarrhalis, W0400, 20 h, read-out: Antimicrobial activity (MIC). In short, it runs like this: as §2
The mark [3] stands for this setting: 20 h, read-out: Antimicrobial activity (MIC), 37° C., 20 hours, SDA with 5% horse blood.
Setting [4] is: Haemophilus influenzae, 9334, 20 h, read-out: Antimicrobial activity (MIC), 37° C., 20 hours, SDA with 5% horse blood.
The mark [5] stands for this setting: 37° C., 20 hours, SDA with 5% horse blood.

In brackets after ≈: the same amount, converted by molar mass. Read-outs that look alike come from different tables or passages of the source. A value given as a limit tells only on which side of the number the result lay.

As for `CCC(=O)O[C@@H]1CC(=O)O[C@H](C)C/C=C/C=C/[C@H](OC(C)=O)[C@H](C)C[C@H](CC=O)[C@H](O[C@@H]2O[C@H](C)[C@@H](O[C@H]3C[C@@](C)(OC)[C@@H](OC(=O)CC)[C@H](C)O3)[C@H](N(C)C)[C@H]2O)[C@H]1OC` [(5), 9-O-acetyl-3"-O-methylmidecamycin A1], the “amount giving a coordinate infection-treating effect relative to miokamycin” value in data set [1] (fraction of miokamycin amount) is given as 1/4. For the same compound, the “amount giving a coordinate infection-treating effect relative to rokitamycin” value in [1] (fraction of rokitamycin amount) is on record as 1/8. In addition, in the data set on test strains (9-O-acylated vs free 9-hydroxyl), the “antimicrobial activities compared with starting materials (1), (2) and (33)” value is listed as “strong antimicrobial activities by themselves though slightly lower than those of their starting materials”. Further, in the data set on test strains (vs miokamycin (MOM)), the “antimicrobial activities in vitro compared with miokamycin” value was “comparable to or higher”.
Consider `CCC(=O)O[C@@H]1CC(=O)O[C@H](C)C/C=C/C=C/[C@H](OC(C)=O)[C@H](C)C[C@H](CC=O)[C@H](O[C@@H]2O[C@H](C)[C@@H](O[C@H]3C[C@@](C)(OC(C)=O)[C@@H](OC(=O)CC)[C@H](C)O3)[C@H](N(C)C)[C@H]2O)[C@H]1OC` [MOM, miokamycin, reference compound], for which the MIC in the data set on S. aureus 209P JC-1 is 0.39 µg/mL (≈ 0.434 µM); in the data set with E. faecalis W-73 it was 6.25 µg/mL (≈ 6.96 µM); with S. aureus MS15009/pMS98, 0.78 µg/mL (≈ 0.869 µM); with S. aureus M133, 0.78 µg/mL (≈ 0.869 µM); in the data set with E. coli NIHJ JC-2, over 100 µg/mL; in the data set on S. epidermidis ATCC14990, 0.78 µg/mL (≈ 0.869 µM). Further, the MIC is 0.2 µg/mL (≈ 0.223 µM) in the data set on S. pyogenes Cook (setting [3]); 1.56 µg/mL (≈ 1.74 µM) in the data set with B. catarrhalis W-0506; over 100 µg/mL with S. aureus MS15009/pMS99; 0.2 µg/mL (≈ 0.223 µM) with S. pneumoniae Type 1; 0.2 µg/mL (≈ 0.223 µM) in the data set with S. pneumoniae IP692; over 100 µg/mL with S. aureus MS15026. The MIC with M. luteus ATCC9341 (ATCC9341, 20 h, read-out: Antimicrobial activity (MIC), 37° C., 20 hours, SDA with 5% horse blood) was 0.1 µg/mL (≈ 0.111 µM); in the data set with H. influenzae 9334 (setting [4]), 6.25 µg/mL (≈ 6.96 µM); in the data set with K. pneumoniae PCI602 it was over 100 µg/mL; with S. aureus MS15027, 0.78 µg/mL (≈ 0.869 µM); in the data set on H. influenzae Type b, 50 µg/mL (≈ 55.7 µM); in the data set on B. catarrhalis W-0500 it was 1.56 µg/mL (≈ 1.74 µM). Further, the MIC with S. aureus M126 was over 100 µg/mL. Moreover, in data set [2], the “metabolism and loss of antimicrobial activity after oral administration” value was “an acyl group of a neutral sugar moiety of the administered drug is cleaved with time and antimicrobial activities of the drug itself therefore is reduced gradually”.
For the compound `CCCC(=O)O[C@H]1[C@H](C)O[C@@H](O[C@H]2[C@H](N(C)C)[C@@H](O)[C@H](O[C@H]3[C@@H](CC=O)C[C@@H](C)[C@@H](O)/C=C/C=C/C[C@@H](C)OC(=O)C[C@@H](O)[C@@H]3OC)O[C@@H]2C)C[C@@]1(C)OC(=O)CC` [RKM, rokitamycin, reference compound], the “Antimicrobial activity (MIC)” value in the data set on S. aureus 209P JC-1 (setting [5]) is 0.20 µg/mL; with S. aureus MS15009/pMS98 (setting [5]), 0.78 µg/mL; in the data set on S. aureus M133 (setting [5]), 0.78 µg/mL; with S. pneumoniae Type 1 (setting [5]), 0.20 µg/mL; in the data set with S. pneumoniae IP692 (setting [5]) it was 0.20 µg/mL; in the data set on H. influenzae Type b (setting [5]) it was 12.5 µg/mL. Besides, the MIC with S. aureus 209P JC-1 is 0.1 µg/mL (≈ 0.121 µM); in the data set on E. faecalis W-73 (setting [5]), 1.56 µg/mL (≈ 1.88 µM); in the data set on E. faecalis W-73 it was 0.39 µg/mL (≈ 0.471 µM); in the data set with S. aureus MS15009/pMS98, 0.39 µg/mL (≈ 0.471 µM); in the data set on S. aureus M133 it was 0.39 µg/mL (≈ 0.471 µM); with E. coli NIHJ JC-2 it was over 100 µg/mL. Besides, the MIC in the data set with S. epidermidis ATCC14990 was 0.78 µg/mL (≈ 0.942 µM); in the data set with S. pyogenes Cook (setting [3]), 0.2 µg/mL (≈ 0.242 µM); in the data set on S. pyogenes Cook (37° C., 20 hours, SDA with 5% horse blood, read-out: Antimicrobial activity (MIC)) it was 0.05 µg/mL (≈ 0.0604 µM); in the data set with S. aureus MS15009/pMS99, over 100 µg/mL; in the data set on S. pneumoniae Type 1, 0.1 µg/mL (≈ 0.121 µM); with S. pneumoniae IP692, 0.1 µg/mL (≈ 0.121 µM). Further, the MIC with S. aureus MS15026 is over 100 µg/mL; with M. luteus ATCC9341 (ATCC9341, 37° C., 20 hours, SDA with 5% horse blood, read-out: Antimicrobial activity (MIC)), 0.05 µg/mL (≈ 0.0604 µM); with H. influenzae 9334 (setting [4]), 6.25 µg/mL (≈ 7.55 µM); in the data set with H. influenzae 9334 (Haemophilus influenzae, 9334, 37° C., 20 hours, SDA with 5% horse blood, read-out: Antimicrobial activity (MIC)) it was 1.56 µg/mL (≈ 1.88 µM); with B. catarrhalis W-0400 it was 0.39 µg/mL (≈ 0.471 µM); with K. pneumoniae PCI602, over 100 µg/mL. The MIC in the data set on S. aureus MS15027 was 0.78 µg/mL (≈ 0.942 µM); with H. influenzae Type b it was 6.25 µg/mL (≈ 7.55 µM); with S. aureus M126, over 100 µg/mL. Moreover, the “metabolism and loss of antimicrobial activity after oral administration” value in [2] is “an acyl group of a neutral sugar moiety of the administered drug is cleaved with time and antimicrobial activities of the drug itself therefore is reduced gradually”.

(Values after US5602106A, “16-membered macrolide derivatives” (priority 1993, dated 1997).)
